# Assay results from patent US20250257061A1, “COMPOSITIONS AND METHODS FOR TREATING CANCER AND REDUCING WNT MEDIATED EFFECTS” (StemSynergy Therapeutics, Inc., priority 2024, published 2025).
# Where two headings read alike, the source gives them in different places.
# Key:
# [1] = test system: Wnt reporter (TCF/LEF1 promoter); assay: HEK STF293 Wnt reporter (TOPFlash) luciferase assay, Steady Glo normalised to Cell Titer; type: cell-based, human
# Experimental: All compounds were tested using the human cell line HEK STF293. This cell line carries a Wnt reporter (TCF/LEF1 promoter), which drives expression of the firefly luciferase protein. The level of Wnt activity is directly correlated with the level of luciferase activity (determined using a simple assay). Compounds that inhibit Wnt signaling by reducing luciferase activity in these two cell lines are further tested biochemically. […] Compounds were further tested in a Viability assay using Wnt-dependent HCT116 cell line. Compounds were prepared as 10 mM stocks for each compound in DMSO. Dilutions were prepared in a 96-well plate in DMSO. The stock dilutions are as follows: 10 mM, 1 mM, 100 μM, 10 μM, 100 nM, and 10 nM. Plates were sealed and stored at −20° C. […] On the first day, Wnt3a-conditioned media (1:1) were added along with diluted compounds (1:100). […] The final concentrations should therefore be 100 μM, 10 μM, 1 μM, 100 nM, 10 nM, and 1 nM. On the second day, the media was removed and 75 μL of Passive Lysis Buffer (Promega) is added to each well. The plate was shaken at 130 rpm for 15 minutes. For the Steady Glo assay, 45 μL of the lysis was removed and added to a white 96-well plate containing 45 μL/well of Steady Glo solution (Promega). For the Cell Titer assay, 25 μL of the lysis was transferred to a white 96-well plate containing 25 μL/well of Cell Titer solution (Promega). Both Steady Glo and Cell Titer assays were read with a luminescence plate reader. When determining EC50, the Steady Glo values were divided by the Cell Titer values to normalize for cell number. All compounds were tested using the human cell line HEK STF293. This cell line carries a Wnt reporter (TCF/LEF1 promoter), which drives expression of the firefly luciferase protein. The level of Wnt activity is directly correlated with the level of luciferase activity (determined using a simple assay). Compounds that inhibit Wnt signaling by reducing luciferase activity in these two cell lines are further tested biochemically. […] Compounds were further tested in a Viability assay using Wnt-dependent HCT116 cell line. Compounds were prepared as 10 mM stocks for each compound in DMSO. Dilutions were prepared in a 96-well plate in DMSO. The stock dilutions are as follows: 10 mM, 1 mM, 100 μM, 10 μM, 100 nM, and 10 nM. Plates were sealed and stored at −20° C. […] On the first day, Wnt3a-conditioned media (1:1) were added along with diluted compounds (1:100). […] The final concentrations should therefore be 100 μM, 10 μM, 1 μM, 100 nM, 10 nM, and 1 nM. On the second day, the media was removed and 75 μL of Passive Lysis Buffer (Promega) is added to each well. The plate was shaken at 130 rpm for 15 minutes. For the Steady Glo assay, 45 μL of the lysis was removed and added to a white 96-well plate containing 45 μL/well of Steady Glo solution (Promega). For the Cell Titer assay, 25 μL of the lysis was transferred to a white 96-well plate containing 25 μL/well of Cell Titer solution (Promega). Both Steady Glo and Cell Titer assays were read with a luminescence plate reader. When determining EC50, the Steady Glo values were divided by the Cell Titer values to normalize for cell number. All compounds were tested using the human cell line HEK STF293. This cell line carries a Wnt reporter (TCF/LEF1 promoter), which drives expression of the firefly luciferase protein. The level of Wnt activity is directly correlated with the level of luciferase activity (determined using a simple assay). Compounds that inhibit Wnt signaling by reducing luciferase activity in these two cell lines are further tested biochemically. […] Compounds were further tested in a Viability assay using Wnt-dependent HCT116 cell line. Compounds were prepared as 10 mM stocks for each compound in DMSO. Dilutions were prepared in a 96-well plate in DMSO. The stock dilutions are as follows: 10 mM, 1 mM, 100 μM, 10 μM, 100 nM, and 10 nM. Plates were sealed and stored at −20° C. […]
# [2] = test system: Wnt-dependent HCT116 cell line; assay: Viability assay using Wnt-dependent HCT116 cell line (Cell Titer Glo); type: cell-based
# Experimental: All compounds were tested using the human cell line HEK STF293. This cell line carries a Wnt reporter (TCF/LEF1 promoter), which drives expression of the firefly luciferase protein. The level of Wnt activity is directly correlated with the level of luciferase activity (determined using a simple assay). Compounds that inhibit Wnt signaling by reducing luciferase activity in these two cell lines are further tested biochemically. […] Compounds were further tested in a Viability assay using Wnt-dependent HCT116 cell line. HEK293 cells were seeded in a 6-well plate at approximately 8.0×10^5 cells (2 mL per well). On the first day, Wnt3a-conditioned media (1:1) and compounds (1:100) were added to the plated cells. The final concentrations of compounds were 1 μM, 500 nM, and 100 nM. Vehicle (DMSO) and a Wnt3a-conditioned media plus Vehicle samples were also prepared as controls. Lysates were collected (with non-denaturing lysis buffer) after 24 hours incubation, and protein concentrations determined by Bradford Assay. Immunoblotting with an anti-beta-catenin antibody (equivalent amounts of protein/lane for each condition) were subsequently performed to determine beta-catenin levels. HCT116 cells were seeded at 2,500 cells/well in a 96-well dish (Volume: 100 μL/well). On the second day, the 10 mM stock solution of each test compound was thawed at room temperature. Dilutions of the test compound were prepared in DMSO in a V-bottom 96-well plate. The stock compound solution, DMSO-diluted compound solutions, and DMSO were further diluted 500-fold in cell culture media, and 100 μL of the compound- or DMSO-containing cell culture media was added to each well of the cells. […] The final DMSO concentration was 0.1% in all wells. On the fifth day, 150 μL of media was removed from each well. 50 μL/well Cell Titer Glo reagent (Promega) was added to each well. The plate was shaken at 130 rpm for 15 minutes at room temperature, and the cell viability was determined using a luminescence plate reader. All compounds were tested using the human cell line HEK STF293. This cell line carries a Wnt reporter (TCF/LEF1 promoter), which drives expression of the firefly luciferase protein. The level of Wnt activity is directly correlated with the level of luciferase activity (determined using a simple assay). Compounds that inhibit Wnt signaling by reducing luciferase activity in these two cell lines are further tested biochemically. […] Compounds were further tested in a Viability assay using Wnt-dependent HCT116 cell line. HEK293 cells were seeded in a 6-well plate at approximately 8.0×10^5 cells (2 mL per well). On the first day, Wnt3a-conditioned media (1:1) and compounds (1:100) were added to the plated cells. The final concentrations of compounds were 1 μM, 500 nM, and 100 nM. Vehicle (DMSO) and a Wnt3a-conditioned media plus Vehicle samples were also prepared as controls. Lysates were collected (with non-denaturing lysis buffer) after 24 hours incubation, and protein concentrations determined by Bradford Assay. Immunoblotting with an anti-beta-catenin antibody (equivalent amounts of protein/lane for each condition) were subsequently performed to determine beta-catenin levels. HCT116 cells were seeded at 2,500 cells/well in a 96-well dish (Volume: 100 μL/well). On the second day, the 10 mM stock solution of each test compound was thawed at room temperature. Dilutions of the test compound were prepared in DMSO in a V-bottom 96-well plate. The stock compound solution, DMSO-diluted compound solutions, and DMSO were further diluted 500-fold in cell culture media, and 100 μL of the compound- or DMSO-containing cell culture media was added to each well of the cells. […] The final DMSO concentration was 0.1% in all wells. On the fifth day, 150 μL of media was removed from each well. 50 μL/well Cell Titer Glo reagent (Promega) was added to each well. The plate was shaken at 130 rpm for 15 minutes at room temperature, and the cell viability was determined using a luminescence plate reader. […]
# [3] = Homo sapiens, STF/293, Examples for Formulae (I), (II), and (III), HEK STF293 cells, Wnt3a-conditioned media, read-out: TOPFlash IC50 category
# [4] = Homo sapiens, HCT-116, Examples for Formulae (I), (II), and (III), HCT116 cells, read-out: Viability IC50 category
# [5] = Homo sapiens, STF/293, Examples for Formulae (IV), (V), (VI), and (VII), HEK STF293 cells, Wnt3a-conditioned media, read-out: TOPFlash IC50 category
# [6] = Homo sapiens, HCT-116, Examples for Formulae (IV), (V), (VI), and (VII), HCT116 cells, read-out: Viability IC50 category
# [7] = Homo sapiens, STF/293, Examples for Formulae (VIII), (IX), and (X), HEK STF293 cells, Wnt3a-conditioned media, read-out: TOPFlash IC50 category
# [8] = Homo sapiens, HCT-116, Examples for Formulae (VIII), (IX), and (X), HCT116 cells, read-out: Viability IC50 category
Structure (SMILES),"IC50 [1, 5] [nM]","IC50 [2, 6] [nM]",other results
Cc1nn(Cc2ccc(F)cc2)c(Cl)c1C(=O)Nc1nc(-c2ccccn2)cs1 [Example 9],–,–,"IC50 [1, 3]: 500 to 1000 nM; IC50 [2, 4]: 500 to 1000 nM"
CN(C)C(=O)c1ccc(-c2ncoc2C(=O)Nc2nc(-c3ccccn3)cs2)cc1 [Example 41],500 to 1000,500 to 1000,–
Cc1nc(-c2ccc(-c3nnc[nH]3)cc2)c(C(=O)Nc2nc(-c3ccccn3)cs2)o1 [Example 67],200 to 500,200 to 500,–
Cc1onc(-c2ccc(C(F)(F)F)cc2)c1C(=O)Nc1nc(-c2ccccn2)cs1 [Example 24],–,–,"IC50 ([1]; Homo sapiens, STF/293, read-out: TOPFlash IC50 category): < 200 nM; IC50 ([2]; Homo sapiens, HCT-116, read-out: Viability IC50 category): < 200 nM"
O=C(Nc1nc(-c2ccccn2)cs1)c1cccnc1Oc1ccc(C(F)(F)F)cc1 [Example 13],–,–,"IC50 [1, 7]: 200 to 500 nM; IC50 [2, 8]: 500 to 1000 nM"
O=C(Nc1nc(-c2ccccn2)cs1)c1oc(C2CC2)nc1-c1ccc(F)cc1 [Example 31],< 200,200 to 500,–
O=C(Nc1nc(-c2ccccn2)cs1)c1ccn(Cc2ccc(C(F)(F)F)cc2)c(=O)c1 [Example 10],–,–,"IC50 [1, 7]: 500 to 1000 nM; IC50 [2, 8]: 500 to 1000 nM"
Cc1onc(-c2ccc(Cl)cc2Cl)c1C(=O)Nc1nc(-c2ccccn2)cs1 [Example 17],200 to 500,200 to 500,–
Cc1onc(-c2ccc(F)cc2)c1C(=O)Nc1nc(-c2ccccn2)cs1 [Example 4],< 200,200 to 500,–
CS(=O)(=O)c1ccc(F)cc1-c1ncoc1C(=O)Nc1nc(-c2ccccn2)cs1 [Example 47],500 to 1000,200 to 500,–
O=C(Nc1nc(-c2ccccn2)cs1)c1cccnc1-c1ccc(F)cc1 [Example 12],–,–,"IC50 [1, 7]: 200 to 500 nM; IC50 [2, 8]: 500 to 1000 nM"
Cc1ccc(Cn2nc(C)c(C(=O)Nc3nc(-c4ccccn4)cs3)c2C)cc1 [Example 10],–,–,"IC50 [1, 3]: 500 to 1000 nM; IC50 [2, 4]: 1000 to 10000 nM"
CN(C(=O)c1ccc(C(F)(F)F)cc1)c1ncc(C(=O)Nc2nc(-c3ccccn3)cs2)o1 [Example 35],–,–,"IC50 ([1]; Examples for Formulae (IV), (V), (VI), and (VII), HEK STF293 cells, Wnt3a-conditioned media, read-out: TOPFlash IC50 category): 500 to 1000 nM; IC50 ([2]; Examples for Formulae (IV), (V), (VI), and (VII), HCT116 cells, read-out: Viability IC50 category): 1000 to 10000 nM"
O=C(Nc1nc(-c2ccccn2)cs1)c1ocnc1-c1ccccc1 [Example 2],< 200,200 to 500,–
